The test system of this experiment is P. falciparum 3D7 growth, pLDH absorbance. Put plainly: P. falciparum 3D7 growth inhibition, dose response, strain 3D7 (AID 2305).

As a reminder, the IC50 is the point on the concentration scale where inhibition reaches its midpoint.

Consider `COc1ccc(Nc2nccc(N3CCC(NC(=O)Nc4cccc(OC)c4)C3)n2)cc1` (stereo unspecified), for which the IC50 turned out to be 0.42 µM.
The result for `CCc1c(C(=O)NC2CCC(N3CCC(c4ccccc4C)CC3)CC2)[nH]c2ccc(Br)cc12` (stereo unspecified) reads 0.93 µM; that for `CCC(C)CN1CCN(c2ccc(NC(=O)c3cccs3)cc2)CC1C` (stereo unspecified), 0.66 µM; that for `CCOc1ccc(-c2nc(NC(=O)COc3ccc(OC)cc3)sc2C)cc1`, 0.54 µM.
As to `CC(C)Cc1cn(-c2nc(-c3nc4ccccc4[nH]3)cs2)c2cc(Cl)ccc12`, the IC50 turned out to be 0.48 µM.
The compound `Cc1ccc(NC(=O)c2nc(N3CCN(c4ccncc4)CC3)ccc2Cl)cc1F` gave an IC50 of 0.81 µM.
For `Cc1nc(N)nc(N)c1OCc1cccc2c1ccc1ccccc12` the value was 0.1 µM; for `CCOc1ccc(C(C)NC(=O)c2ccc(OC)c(Br)c2)cc1OCC` (stereo unspecified), 0.71 µM.
In turn, `O=C(/C=C/c1ccccc1Cl)NC1CCC(CN2[C@@H]3CC[C@H]2CC(c2c[nH]c4ccccc24)C3)CC1` (stereo partly specified) displayed an IC50 of 0.71 µM.
For the compound `Cc1c(Cc2ccc(C(C)C)cc2)cnc2nc(N)nc(N)c12`, the IC50 was 0.3 µM.
The result for `O=C(O)c1ccc(-c2c[nH]c3ncc(-c4ccc(Cl)cc4)cc23)cc1` reads 0.73 µM; that for `O=C(Nc1ccc(Cl)cc1)Nc1ccc(-c2ccc(-c3nc4ccccc4[nH]3)cc2)cc1`, 0.05 µM; that for `COc1ccc(C2CC(c3cccs3)=NN2C(=O)CNc2cccc(C#N)c2)cc1OC` (stereo unspecified), 1.45 µM.
As for `N#Cc1ccc2c(c1)CCN(CCC1CCC(NC(=O)/C=C/c3cccc4cc[nH]c34)CC1)CC2` (stereo unspecified), the IC50 was 1.09 µM.
Compound `Cc1onc(-c2c(Cl)cccc2Cl)c1C(=O)NC1=NC(C)(C)ON1c1ccccc1` displayed an IC50 of 1.07 µM.
The result for `O=S(=O)(c1ccc2ccccc2c1)N1CCCN(Cc2ccc(OCCCN3CCCCC3)cc2)CC1` reads 1.1 µM; that for `N=c1n(CCN2CCCCC2)c2ccccc2n1CC(O)c1cccc(Br)c1` (stereo unspecified), 1.14 µM; that for `Cn1c(NC2CCN(CC3CCN(C(=O)/C=C/c4ccc(Cl)c(Cl)c4)CC3)CC2)nc2ccccc21`, 0.15 µM.
For `CCN(CC)CCN(Cc1ccc(-c2ccc(C(F)(F)F)cc2)nc1)C(=O)Cn1c(SCc2ccc(F)cc2)nc(=O)c2sccc21` the value was 0.84 µM.
For `NC(=O)c1cccc(C(=O)Nc2cccc(-c3ccc(-c4nc5ccc(C(F)(F)F)cc5[nH]4)cc3)c2)c1` the value was 0.52 µM; for `COc1ccc(C=NNc2cc(C)nc3ccc(C)cc23)c2ccccc12`, 0.86 µM; for `O=C(Cc1ccc(NC(=O)c2ccc(O)c(-c3cccc([N+](=O)[O-])c3)c2)cc1)NCCN1CCCCC1`, 0.9 µM.
As to `O=S(=O)(Nc1cccc(CCN2CCC(N3CCCCC3)CC2)c1)c1ccccc1C(F)(F)F`, the IC50 stood at 1.15 µM.
The result for `Nc1cc(C=Cc2ccc([N+](=O)[O-])o2)nc2ccccc12` reads 0.37 µM; that for `COc1ccc(N2CCN(C(CNC(=O)C3CCCCC3)c3ccc4c(c3)OCO4)CC2)cc1` (stereo unspecified), 0.57 µM.
The result for `CC(C)(C)c1ccc(CN2CCC(CNC(=O)c3cc(-c4cccc(Cl)c4)cs3)C2)cc1` (stereo unspecified) reads 1.16 µM; that for `O=[N+]([O-])c1ccc(C=NNc2nc(Nc3ccccc3)nc(Nc3ccccc3)n2)o1`, 0.84 µM.
For `COc1cc(C(=O)N2CCOC(CCN3CC[C@@H]4c5ccccc5C[C@@H]43)(c3ccc(Cl)c(Cl)c3)C2)cc(OC)c1OC` (stereo partly specified) the value was 0.53 µM; for `CCCc1ccccc1Nc1nc(C)cc(N(CC)CCCN2CCCCC2)n1`, 0.62 µM.
For the compound `Cc1cc(NCc2ccccc2)nc2cc(O)ccc12`, the IC50 is 0.78 µM.
The result for `CC(C)CN1C(=O)C(c2ccc(F)c(F)c2)=C(O)C1c1ccccc1` (stereo unspecified) reads 0.19 µM; that for `CCCOc1cc(OCCC)cc(-c2cc(=O)c3ccccc3[nH]2)c1`, 0.06 µM; that for `CC(C)NCc1cccc(-c2cccc(NC(=O)c3cccc(Cl)c3)c2)c1`, 0.59 µM.
For `CN(C)c1ccc(-c2csc(C(=O)NC3CCN(CCC(C)(C)C)C3)c2)cc1` (stereo unspecified) the value was 0.97 µM.
Compound `COc1ccc(CC(C)NCC(O)c2ccc(Cl)c(Cl)c2)cc1` (stereo unspecified) displayed an IC50 of 0.72 µM.
The result for `CC[C@H]1CN2CCc3c([nH]c4ccccc34)[C@@H]2C[C@@H]1CC1c2cc(OC)c(OC)cc2CCN1C` (stereo partly specified) reads 1.09 µM.
The compound `CCOC(=O)CCCc1cc(NC2CCN(C)CC2)nc(Nc2ccc(C)cc2)n1` gave an IC50 of 0.26 µM.
The result for `CC(=O)N[C@@H]1c2cc(C(C)=O)ccc2OC(C)(C)[C@@H]1O` reads 0.98 µM; that for `CN1CCCC(CN2CCN(Cc3cccc(-c4cccc(-c5nc6ccccc6[nH]5)c4)c3)CC2)C1` (stereo unspecified), 0.14 µM.
For `O=C(NCCCCCN1CCC(c2c[nH]c3ccccc23)CC1)Nc1cccc(Cl)c1` the value was 1.02 µM; for `Cc1cccc2[nH]c(-c3ccc(-c4ccc(NC(=O)C(C)CN(C)C)cc4)s3)nc12` (stereo unspecified), 0.41 µM; for `Cc1cc(=O)[nH]c2cc(Nc3ccnc(Nc4cccc(C(N)=O)c4)n3)ccc12`, 1.52 µM.
`CC(C)(C)c1ccc(-c2cc3c(ccc4nc(N)nc(N)c43)[nH]2)cc1` came in with an IC50 of 0.11 µM.
For `c1ccc2[nH]c(-c3ccc(-c4ccc(CN5CCN(c6ccncc6)CC5)cc4)s3)nc2c1` the value was 0.2 µM; for `CC(C)CC(NC(=O)c1cc2ccccc2s1)C(=O)N1CCCCCC1c1ccc(C(C)(C)C)cc1` (stereo unspecified), 0.86 µM; for `Cc1cc(NC(=O)NCCN2CCC(NS(=O)(=O)c3ccc(Br)cc3)C2)c2ccccc2n1` (stereo unspecified), 0.6 µM.
The result for `Cc1cccnc1Nc1nc(-c2ccccn2)cs1` reads 0.69 µM; that for `N#Cc1ccccc1N1CCN(C2CCC(NC(=O)c3n[nH]c4cc(C(F)(F)F)ccc34)CC2)CC1` (stereo unspecified), 1.37 µM.
Take `Nc1nc(-c2ccccn2)nc(-n2nc(-c3cccc(C(F)(F)F)c3)cc2N)n1`: the IC50 was 1.04 µM.
Consider `O=C(/C=C/c1ccc(Cl)c(Cl)c1)NCC1CCN(Cc2ccc(O)cc2)CC1`, for which the IC50 amounted to 0.69 µM.
`COc1ccc2c(NN=Cc3ccccc3[N+](=O)[O-])ccnc2c1` displayed an IC50 of 0.74 µM.
Consider `O=C(NCCCCCN1CCCN(C(=O)Nc2ccc(Cl)c(C(F)(F)F)c2)CC1)[C@@H]1C[C@H]1c1ccc(Cl)c(Cl)c1`, for which the IC50 came out at 0.85 µM.
Take `O=C(/C=C/c1ccc(-c2nc3cc(F)c(F)cc3[nH]2)cc1)NCc1ccc(Cl)c(Cl)c1`: the IC50 turned out to be 0.94 µM.
The result for `CN(C)CCOc1cc(NC(=O)Nc2cccc([N+](=O)[O-])c2)ccc1I` reads 0.74 µM; that for `CC1(C)N=C(N)N=C(N)N1c1ccc(I)cc1`, 0.04 µM.
In turn, `Cc1ccc(CNC(=O)[C@H](CCCN)Nc2nc(NCC3CCCCC3)ncc2C)cc1` came in with an IC50 of 0.99 µM.
Compound `CN(C)c1cccc2c1nc(-c1ccc3c(c1)CCO3)n2CCNCc1ccccc1` had an IC50 of 0.73 µM.
For `O=C(CCC1CCCCC1=O)c1ccccc1` (stereo unspecified) the value was 0.77 µM; for `CN1CCCN(Cc2cccc(-c3cccc(NC(=O)c4ccc(Cl)cc4)c3)c2)CC1`, 0.92 µM.
`CC[C@H]1CN2CC[C@@H]1C[C@H]2[C@H](O)c1cc(N2CCC(N3CCCCC3)CC2)nc2ccc(OC)cc12` returned an IC50 of 0.27 µM.
Regarding `CS(=O)(=O)NCCCNCc1cccc(-c2ccc(-c3nc4ccc(C(F)(F)F)cc4[nH]3)s2)c1`, the IC50 came to 0.88 µM.
Consider `O=C(CCCCCNC(=O)c1ccc(O)c(-c2ccc(Cl)c(Cl)c2)c1)NCc1cccc(C(F)(F)F)c1`, for which the IC50 was found to be 0.73 µM.
For `COc1ccc(-c2ccccc2CNC2Cc3ccccc3C2)cc1S(=O)(=O)NCCN1CCCC1` the value was 0.87 µM; for `CCCNc1nc(NCc2c(C)cccc2C)nc(NC(C)(C)C)n1`, 0.86 µM.
The result for `NC1CCN(CCNCc2cccc(-c3ccc(-c4nc5ccc(C(F)(F)F)cc5[nH]4)cc3)c2)C1` (stereo unspecified) reads 0.89 µM; that for `COc1cc2nc(SCC(C)C)n(CCCn3ccnc3)c(=N)c2cc1OC`, 0.61 µM; that for `Cc1ccc(O)c(C(=O)c2cnc3c(c2)c(-c2ccc(F)cc2)c(C#N)c(=O)n3C)c1`, 0.97 µM.
For `CN(C)c1ccc(-c2csc(C(=O)NCC3CCN(Cc4ccc(C(C)(C)C)cc4)C3)c2)cc1` (stereo unspecified) the value was 0.99 µM; for `Cc1nc(Nc2ccc(F)cc2)nc(N2CCc3ccccc3C2C)c1CO` (stereo unspecified), 0.74 µM; for `C[C@@H]1CN(c2ccnc3ccc(Sc4ccc(Oc5ccccc5)cc4)cc23)C[C@H](C)N1`, 0.78 µM.
Consider `C=CCN1CCC(N(Cc2cccc(Oc3ccccc3)c2)C(=O)C(c2ccccc2)c2ccccc2)CC1`, for which the IC50 came to 1.14 µM.
The result for `COc1ccccc1C1CCN(CCN2CCC(NC(=O)c3ccc(-c4ccc(C#N)cc4)cc3)CC2)CC1` reads 0.79 µM.
The result for `CC(C)[C@H](NC(=O)c1c(F)cccc1F)C(=O)Nc1ccc(Cc2nc3ccccc3s2)cc1` reads 0.5 µM; that for `Cc1cccc2[nH]c(-c3cc(-c4cccc(Cl)c4)cnc3N)nc12`, 0.12 µM.
`O=C(Cn1c(CCc2cccc(F)c2F)cc(=O)c2ccccc21)N(Cc1ccc(-c2ccc(C(F)(F)F)cc2)cc1)C1CCN(CCN2CCOCC2)CC1` returned an IC50 of 0.72 µM.
As to `COc1cc2c(cc1OC)CN(CCc1ccc(NC(=O)c3cc4cc(Cl)ccc4[nH]3)cc1)CC2`, the IC50 came out at 1.02 µM.
For `c1ncc(CCNc2nc(Nc3ccc4c(c3)OCO4)nc(NC3CCCC3)n2)[nH]1` the value was 1.15 µM; for `COC(=O)c1ccc2nc(-c3cc(-c4cccc(-c5ccccc5)c4)cnc3N)[nH]c2c1`, 0.21 µM; for `O=C(NCC1CC1)C1CCN(C(c2ccccc2)c2ccc(Cl)c(Cl)c2)CC1` (stereo unspecified), 0.37 µM.
`O=C(Cc1cnc[nH]1)Nc1cccc(-c2ccc(-c3nc4ccc(C(F)(F)F)cc4[nH]3)cc2)c1` gave an IC50 of 0.7 µM.
On to `CS(=O)(=O)Nc1ccc2[nH]cc(C3CCN(CC4CCN(C(=O)/C=C/c5ccc(Cl)c(Cl)c5)CC4)CC3)c2c1`, for which the IC50 is 0.72 µM.
For `COc1ccccc1C1CN(Cc2coc3ccccc3c2=O)Cc2ccccc2O1` (stereo unspecified) the value was 1.32 µM; for `CCOc1cc(C)ccc1C1CCN(CCCCNC(=O)c2cnc(-c3ccc(C(F)(F)F)cc3)[nH]2)CC1`, 0.77 µM.
For `Cc1c(Cl)cccc1S(=O)(=O)Nc1cccc(CCN2CCC(N3CCCCC3)CC2)c1` the value was 0.83 µM; for `Cc1[nH]c2ccc(NS(C)(=O)=O)cc2c1C1CCN(CCC2CCN(C(=O)/C=C/c3ccc(Cl)c(Cl)c3)CC2)CC1`, 0.84 µM.
Compound `COc1ccc(CN(C)CCCOc2ccc(NC(=O)C=Cc3ccc(C(C)(C)C)cc3)cc2)cc1OC` showed an IC50 of 0.86 µM.
